Laboratory results reported in patent US8637511B2, “Aminopyrimidines useful as kinase inhibitors” (Vertex Pharmaceuticals Incorporated, priority 2005, dated 2014).
Read-outs that look alike come from different tables or passages of the source.

Tests used:
Aurora-2 (Aurora A) = molecular target: T1, Aurora-2 (Aurora A) (Homo sapiens, UniProt O14965); experiment: Aurora-2 (Aurora A) inhibition assay, coupled enzyme; type: biochemical; conditions: read-out: Aurora A kinase Ki value
T1 sequence (O14965 1-403): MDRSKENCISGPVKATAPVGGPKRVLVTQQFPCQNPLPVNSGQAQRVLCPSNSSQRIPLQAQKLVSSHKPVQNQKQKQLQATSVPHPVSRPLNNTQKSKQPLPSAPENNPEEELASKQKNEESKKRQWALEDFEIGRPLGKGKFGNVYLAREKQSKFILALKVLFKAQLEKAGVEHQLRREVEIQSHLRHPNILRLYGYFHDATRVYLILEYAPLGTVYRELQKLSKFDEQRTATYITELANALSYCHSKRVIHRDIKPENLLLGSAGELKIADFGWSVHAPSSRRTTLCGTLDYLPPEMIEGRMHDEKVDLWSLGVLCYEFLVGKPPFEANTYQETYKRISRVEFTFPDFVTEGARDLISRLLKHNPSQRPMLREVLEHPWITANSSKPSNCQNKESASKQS
Summary of the method: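 Coupled pyruvate kinase/lactate dehydrogenase assay with NADH in pH 7.5 Hepes containing MgCl2, DTT and NaCl, using 40 nM Aurora-2 at 30 °C. After a 10 min preincubation, enzyme addition started the reaction, and initial rates were taken over 10 min. IC50 and Ki came from non-linear regression.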

Colo205 cells = experiment: Analysis of cell proliferation and viability; type: cell-based; conditions: Homo sapiens, COLO 205, Colo205 cells, read-out: IC50 value
FLT-3 = molecular target: T2, FLT-3 (Homo sapiens, UniProt P36888); experiment: FLT-3 inhibition assay, radiometric filter-binding; type: biochemical
T2 sequence (P36888 27-993): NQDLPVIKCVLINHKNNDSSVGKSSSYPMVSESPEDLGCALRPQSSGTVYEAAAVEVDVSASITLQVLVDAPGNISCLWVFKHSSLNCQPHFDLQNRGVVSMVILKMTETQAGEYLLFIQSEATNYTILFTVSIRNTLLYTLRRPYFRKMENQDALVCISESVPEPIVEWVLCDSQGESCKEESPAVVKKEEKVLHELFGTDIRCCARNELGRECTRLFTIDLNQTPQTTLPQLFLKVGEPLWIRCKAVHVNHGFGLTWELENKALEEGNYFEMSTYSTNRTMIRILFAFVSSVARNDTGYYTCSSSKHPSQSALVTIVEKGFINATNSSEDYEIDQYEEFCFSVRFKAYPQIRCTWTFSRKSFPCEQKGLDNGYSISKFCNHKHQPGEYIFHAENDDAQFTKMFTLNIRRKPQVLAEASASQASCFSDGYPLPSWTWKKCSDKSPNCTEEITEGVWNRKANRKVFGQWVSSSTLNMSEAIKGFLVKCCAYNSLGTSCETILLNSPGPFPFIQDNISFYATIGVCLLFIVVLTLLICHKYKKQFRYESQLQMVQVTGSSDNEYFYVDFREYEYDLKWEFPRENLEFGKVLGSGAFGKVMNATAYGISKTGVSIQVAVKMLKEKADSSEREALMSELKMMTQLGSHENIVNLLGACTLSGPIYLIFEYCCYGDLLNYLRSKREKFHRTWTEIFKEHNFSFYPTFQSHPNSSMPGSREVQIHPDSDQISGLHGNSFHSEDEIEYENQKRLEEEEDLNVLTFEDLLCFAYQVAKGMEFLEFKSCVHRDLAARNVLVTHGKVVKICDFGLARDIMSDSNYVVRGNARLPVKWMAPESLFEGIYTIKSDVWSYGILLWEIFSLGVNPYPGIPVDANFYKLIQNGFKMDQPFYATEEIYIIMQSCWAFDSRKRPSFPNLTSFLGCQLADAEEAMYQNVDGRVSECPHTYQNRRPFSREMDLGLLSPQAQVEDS

Row | SMILES | Ki (Aurora-2 (Aurora A)) | IC50 (Colo205 cells; incubated for 72 hours) | Ki (FLT-3) | IC50 (Colo205 cells; incubated for 96 hours) | Ki (FLT-3; read-out: FLT-3 Ki value)
1 | Cc1cc(Nc2cc(N3CC(C)(F)C3)nc(Sc3ccc(NC(=O)CC(F)(F)F)cc3)n2)n[nH]1 [Compound 168, N-(4-(4-(5-methyl-1H-pyrazol-3-ylamino)-6-(3-fluoro-3-methylazetidin-1-yl)pyrimidin-2-ylthio)phenyl)-3,3,3-trifluoropropanamide] | ≤ 1 nM | 30 to 200 nM | ≤ 50 nM | – | –
2 | Cc1cc(Nc2cc(N3CC(OC(C)C)C3)nc(Sc3ccc(NC(=O)c4ccccc4Cl)cc3)n2)n[nH]1 [Compound 38] | ≤ 1 nM | – | 150 to 1000 nM | ≤ 50 nM | –
3 | Cc1cc(Nc2cc(N3CC(OC(=O)CN(C)C)(C4CC4)C3)nc(Sc3ccc(NC(=O)C4CC4)cc3)n2)n[nH]1 [Compound 119] | ≤ 1 nM | 30 to 200 nM | – | – | ≤ 50 nM
4 | Cc1cc(Nc2cc(N3CC(N4CCCC4)C3)nc(Sc3ccc(NC(=O)CC(F)(F)F)cc3)n2)[nH]n1 [Compound 204] | ≤ 1 nM | ≤ 30 nM | 50 to 150 nM | – | –
5 | Cc1cc(Nc2cc(N3CC(O)(C4CC4)C3)nc(Sc3ccc4nc(C(F)(F)F)n(C)c4c3)n2)[nH]n1 [Compound 155] | ≤ 1 nM | – | 50 to 150 nM | ≤ 50 nM | –
6 | Cc1cc(Nc2cc(N3CCC3)nc(Sc3ccc(NC(=O)Cc4ccccc4Cl)cc3)n2)[nH]n1 [Compound 57] | ≤ 1 nM | – | – | 50 to 1000 nM | 150 to 1000 nM
7 | CCOC1CN(c2cc(Nc3cc(C)[nH]n3)nc(Sc3ccc(NC(=O)c4ccccc4Cl)cc3)n2)C1 [Compound 37] | ≤ 1 nM | – | 50 to 150 nM | 50 to 1000 nM | –
8 | CC(C)(C)c1cc(Nc2cc(N3CCC3)nc(Sc3ccc(NC(=O)c4ccccc4Cl)cc3)n2)n[nH]1 [Compound 69] | – | – | 150 to 1000 nM | – | –
9 | CC(C)=C1CN(c2cc(Nc3cc(C)n[nH]3)nc(Sc3ccc(NC(=O)CC(F)(F)F)cc3)n2)C1 [Compound 184] | ≤ 1 nM | 30 to 200 nM | 50 to 150 nM | – | –
10 | CCC(=O)Nc1ccc(Sc2nc(Nc3cc(C)n[nH]3)cc(N3CC(OC(C)(C)C)C3)n2)cc1 [Compound 67] | ≤ 1 nM | – | – | 50 to 1000 nM | 50 to 150 nM
11 | Cc1cc(Nc2cc(N3CC(O)(C4CC4)C3)nc(Sc3ccc4nc(C(F)(F)F)ccc4c3)n2)[nH]n1 [Compound 186] | ≤ 1 nM | 30 to 200 nM | 50 to 150 nM | – | –
12 | Cc1cc(Nc2cc(N3CC(F)(C4CC4)C3)nc(Oc3ccc(NC(=O)CC(F)(F)F)cc3)n2)[nH]n1 [Compound 144] | ≤ 1 nM | ≤ 30 nM | ≤ 50 nM | – | –
13 | Cc1cc(Nc2cc(N3CC(C)(C(C)(C)F)C3)nc(Sc3ccc(NC(=O)CC(F)(F)F)cc3)n2)[nH]n1 [Compound 183] | ≤ 1 nM | ≤ 30 nM | ≤ 50 nM | – | –
14 | Cc1cc(Nc2cc(N3CC(C)(C#N)C3)nc(Sc3ccc(NC(=O)CC(F)(F)F)cc3)n2)[nH]n1 [Compound 169] | ≤ 1 nM | 30 to 200 nM | ≤ 50 nM | – | –
15 | CCC(=O)Nc1ccc(Sc2nc(Nc3cc(C)n[nH]3)cc(N3CC(C)(N4CCOCC4)C3)n2)cc1 [Compound 88] | ≤ 1 nM | – | ≤ 50 nM | ≤ 50 nM | –
16 | Cc1cc(Nc2cc(N3CCC3)nc(Sc3ccc(NC(=O)c4cnccc4C(F)(F)F)cc3)n2)[nH]n1 [Compound 59] | – | > 200 nM | 150 to 1000 nM | 50 to 1000 nM | –
17 | COC1(C)CN(c2cc(Nc3cc(C)n[nH]3)nc(Sc3ccc(NC(=O)c4ccccc4Cl)cc3)n2)C1 [Compound 51] | ≤ 1 nM | ≤ 30 nM | 50 to 150 nM | ≤ 50 nM | –
18 | Cc1cc(Nc2cc(N3CC(F)(C4CC4)C3)nc(Sc3ccc(C(=O)NCC(F)(F)F)cc3)n2)[nH]n1 [Compound 205] | ≤ 1 nM | ≤ 30 nM | 50 to 150 nM | – | –
